Structures can show the parent of a compound that is named as a salt.
Legend:
[1] = Literature pharmacokinetics after intravenous infusion; assay type: in vivo; settings: human, plasma, 0.2 mg/kg; 0.20 mg/kg 40 minutes intravenous infusion, predicted on the basis of literature data
Method: Administration route with currently expected minimum level of metabolites is an intravenous one. After intravenous infusion of racemic ketamine at 0.5 mg/kg for 40 minutes, the parent drug maintains its systemic concentration about 200 ng/ml for about 40 minutes, afterwards the concentration falls down quickly with a half-period below 2 hours. Simultaneously, norketamine reaches its maximum concentration at the level of 10-20% of ketamine concentration. The percentage of area-under-curve (AUC) norketamine to ketamine is about 20-40%.

[2] = cited from earlier work
NMDA receptor = settings: cited from earlier work
[3] = cited from earlier work; remark: listed apart in the source
[4] = cited from earlier work; remark: listed apart in the source
[5] = nebulized saline solution, inhalation; cited from earlier work
[6] = after intravenous infusion of racemic ketamine
[7] = after oral administration of ketamine

CN[C@]1(c2ccccc2Cl)CCCCC1=O [esketamine]
concentration at 40 min [1]: 60 to 100 ng/mL
antidepressant effects ([2]; TRD patients, 40-minute i.v. infusion of 0.20 mg/kg or 0.40 mg/kg (Singh et al.)): rapid onset of robust antidepressant effects

NC1(c2ccccc2Cl)CCCCC1=O (stereo not drawn) [norketamine]
activity on NMDA receptor relative to ketamine (NMDA receptor): many times less active than ketamine
maximum concentration as % of ketamine concentration [3, 6]: 10-20%
percentage of AUC norketamine to ketamine [3, 6]: 20-40%
AUC for norketamine relative to ketamine [4, 7]: exceeding 1000%
norketamine level as % of ketamine level [4, 7]: 500-1000%

CNC1(c2ccccc2Cl)CCCCC1=O (racemic) [ketamine]
share of patients with treatment-resistant depression responsive to treatment ([2]; human, in vivo): about ⅔
half-period of concentration fall ([3]; after intravenous infusion 0.5 mg/kg for 40 minutes): below 2 hours
systemic concentration of parent drug ([3]; intravenous infusion 0.5 mg/kg for 40 minutes, maintained about 40 minutes): about 200 ng/ml
bioavailability ([4]; orally administered): 16-20%

CN[C@]1(c2ccccc2Cl)CCCCC1=O [esketamine hydrochloride]
inhaled bioavailability [5]: reduced due to both dose-independent and dose-dependent impairment of pulmonary uptake
